According to US6818391B2, “Glutamate transporters” (The Regents of the University of California, priority 2000, dated 2004):
“Also recorded” adds a separate entry of the source.

Assays:
BNPI (VGLUT1) = biological target: T1, BNPI (VGLUT1) (Rattus norvegicus, UniProt Q62634); assay: 3H-glutamate uptake by membranes from PC12 cells expressing BNPI; type: biochemical; conditions: for inhibition of 3H-glutamate uptake by membranes expressing BNPI: uptake at 5 min; for effect on 3H-glutamate uptake by BNPI membranes: membranes preloaded with 4 mM KCl
T1 construct: expressed in transfected cells; light membranes prepared from them
T1 sequence (Q62634 1-560): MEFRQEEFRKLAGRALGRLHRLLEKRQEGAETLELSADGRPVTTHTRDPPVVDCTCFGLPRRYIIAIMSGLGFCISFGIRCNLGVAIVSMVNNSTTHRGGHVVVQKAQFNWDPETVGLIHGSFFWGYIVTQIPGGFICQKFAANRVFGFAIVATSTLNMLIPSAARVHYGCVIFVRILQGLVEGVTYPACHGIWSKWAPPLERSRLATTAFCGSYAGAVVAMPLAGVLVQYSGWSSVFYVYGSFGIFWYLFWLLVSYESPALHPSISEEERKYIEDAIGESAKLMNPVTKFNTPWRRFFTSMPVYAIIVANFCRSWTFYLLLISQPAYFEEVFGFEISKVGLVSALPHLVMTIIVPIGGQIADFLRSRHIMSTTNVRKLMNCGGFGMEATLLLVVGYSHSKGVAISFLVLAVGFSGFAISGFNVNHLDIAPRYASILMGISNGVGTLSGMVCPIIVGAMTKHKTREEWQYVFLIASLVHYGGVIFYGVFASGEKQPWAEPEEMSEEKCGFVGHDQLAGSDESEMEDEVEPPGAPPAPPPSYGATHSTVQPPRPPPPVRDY
Source text: Rather, the type I transporter NaPi-1 transports organic anions, including phenol red and penicillin G, with substantially higher apparent affinity than Pi (Busch et al. (1996) Proc. Natl. Acad. Sci., USA, 93: 5347). Human genetic studies have shown that mutations in another protein closely related to BNPI and NaPi-1 account for disorders of sialic acid storage (Verheijen et al. (1999) Nature Genet. 23: 462). In these conditions, sialic acid accumulates in lysosomes because of a defect in proton-driven export (Renlund et al. (1986) Science 232: 759; Mancini et al. (1989) J. Biol. Chem. 264: 15247; Tietze et al. (1989) J. Biol. Chem. 264: 15316; Mancini et al. (1992) Proc. Natl. Acad. Sci., USA, 89: 6609). […] To determine whether BNPI mediates the transport of glutamate into synaptic vesicles, we transfected the rat BNPI cDNA into rat pheochromocytoma PC12 cells, which lack detectable endogenous BNPI protein. The rat BNPI cDNA was stably expressed in PC12 cells, and immunofluorescence for BNPI was used to identify the most highly expressing cell clones. Membranes were prepared by homogenizing the washed cells in SH buffer [0.32 M sucrose and 10 mM Hepes-KOH (pH 7.4)] containing protease inhibitors and by pelleting the nuclei at 1000 g for 5 min and the heavier membranes at 27,000 g for 35 min. The supernatant containing lighter membranes was then pelleted at 210,000 g for 1 hour and resuspended in SH buffer with protease inhibitors at a final concentration of ˜10 μg protein/μl.
We then prepared a population of light membranes, including synaptic-like microvesicles, from the transfected and untransfected cells (McIntire et al. (1997) Nature 389: 870) and tested their ability to accumulate 3H-glutamate in the presence of 4 mM chloride and ATP, conditions that optimize glutamate accumulation by native synaptic vesicles (Maycox et al. (1988) J. Biol. Chem., 263: 15423; Carlson et al. […] J. Biol. Chem. 264: 7369). To initiate the transport reaction, we added 10 μl of membranes to 190 μl of SH buffer containing 4 mM KCl, 4 mM MgSO4, 4 mM ATP, and 50 μM 3H-glutamate, with other additions noted in the text and figure legends. The reaction mixture was incubated at 29° C. for varying times, and the uptake was terminated by rapid filtration, followed by immediate washes with 6 ml of cold 0.155 M potassium tartrate and 10 mM Hepes (pH 7.4). Background uptake was determined using membranes prepared from untransfected cells that were incubated for the same amount of time at the same temperature. Transport measurements were performed in duplicate with at least two different preparations of membranes. The Km was calculated by averaging the results of two separate determinations.

DNPI/VGLUT2 = biological target: T2, DNPI/VGLUT2 (Rattus norvegicus, UniProt Q9JI12); assay: 3H-L-glutamate uptake by membranes from PC12 cells expressing DNPI/VGLUT2; type: biochemical; conditions: for inhibition of DNPI-mediated 3H-L-glutamate uptake: uptake at 5 minutes; for effect on 3H-glutamate uptake by DNPI membranes: preloaded 4 mM KCl, 5 minutes
T2 construct: To reconstruct the full open reading frame, the missing segment was amplified from rat brain cDNA by PCR; expressed in transfected cells; light membranes prepared from them
T2 sequence (Q9JI12 1-582): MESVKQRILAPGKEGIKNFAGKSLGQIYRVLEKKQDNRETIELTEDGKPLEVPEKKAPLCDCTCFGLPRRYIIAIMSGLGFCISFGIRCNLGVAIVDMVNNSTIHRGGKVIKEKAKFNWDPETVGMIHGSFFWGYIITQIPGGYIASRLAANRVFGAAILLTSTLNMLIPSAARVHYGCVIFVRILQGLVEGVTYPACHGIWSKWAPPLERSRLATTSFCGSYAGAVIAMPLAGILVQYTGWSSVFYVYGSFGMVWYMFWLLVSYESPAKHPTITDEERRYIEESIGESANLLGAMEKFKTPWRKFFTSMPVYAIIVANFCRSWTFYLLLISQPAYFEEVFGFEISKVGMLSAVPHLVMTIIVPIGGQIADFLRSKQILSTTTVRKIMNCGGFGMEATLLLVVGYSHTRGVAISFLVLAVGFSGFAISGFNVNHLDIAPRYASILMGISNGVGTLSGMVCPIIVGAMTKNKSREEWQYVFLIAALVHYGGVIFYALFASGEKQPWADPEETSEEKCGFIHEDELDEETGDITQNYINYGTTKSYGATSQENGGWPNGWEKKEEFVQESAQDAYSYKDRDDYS
Experimental: PC12 cells were grown in Dulbecco's modified Eagle's medium containing 10% equine serum, 5% calf serum and transfected by electroporation with the rat DNPI/VGLUT2 cDNA subcloned in the pcDNA3 vector containing an […] (Krantz et al. (2000) J. Cell Biol. 149). Stable transformants were selected for resistance to the neomycin analog G418 (500 μg/ml) and screened by immunofluorescence with the DNPI antibody, resulting in the identification of two independent clones with more than 80% of the cells expressing DNPI.
For membrane preparation, untransfected and DNPI-expressing PC12 cells were grown on 15 cm plates, washed with calcium- and magnesium-free PBS, collected in 0.32 M sucrose/10 mM HEPES-KOH, pH 7.4 (SH buffer) containing protease inhibitors (2 μg/ml leupeptin, 1 μg/ml pepstatin, 1 μg/ml E64, 0.2 mM diisopropylfluorphosphate, 2 μg/ml aprotinin, and 1.25 mM MgEGTA), homogenized using a ball bearing device and the homogenate sedimented at 1000 g for 5 min to remove nuclei and debris. The supernatant was then sedimented at 27,000 g for 35 min to remove heavier membranes. The remaining light membranes including small synaptic-like microvesicles were then sedimented at 210,000 g for 1 hour. The pellet was resuspended in SH buffer with protease inhibitors at ˜10 mg protein/ml.
To initiate the transport reaction, 20 μl membranes (˜200 μg protein) were added to 180 μl SH buffer containing 4 mM KCl, 4 mM MgSO4, […], and 100 μM ^3H-L-glutamate, with other additions noted in the text and figure legends. The reaction mixture was incubated at 29° C. for varying intervals, uptake was terminated by rapid filtration through Supor-200 membranes (Gelman) and the filters were washed rapidly four times with 1.5 ml cold 0.155 M potassium tartrate/10 mm HEPES-KOH, pH 7.4 before measuring the bound radioactivity by scintillation counting in 3 ml Cytoscint (ICN). Uptake specifically mediated by DNPI/VGLUT2 was determined by subtracting the background uptake of untransfected cell membranes from the uptake by transfected cell membranes. To examine the chloride dependence of transport, varying proportions of 0.14 M K gluconate and 0.14 M KCl were mixed in the standard reaction buffer (without sucrose) to vary the chloride concentration and maintain constant osmolarity. The ionophores nigericin and valinomycin used in FIG. 13E were prepared as 200× stock solutions in ethanol. The final ethanol concentration in the reaction mixture was 1%.

[1] = system: untransfected PC12 cell membranes; assay: background 3H-glutamate uptake by membranes from untransfected PC12 cells; type: biochemical, rat; conditions: uptake at 5 min
Experimental: To initiate the transport reaction, we added 10 μl of membranes to 190 μl of SH buffer containing 4 mM KCl, 4 mM MgSO4, 4 mM ATP, and 50 μM 3H-glutamate, with other additions noted in the text and figure legends. […] Background uptake was determined using membranes prepared from untransfected cells that were incubated for the same amount of time at the same temperature. Transport measurements were performed in duplicate with at least two different preparations of membranes. The Km was calculated by averaging the results of two separate determinations.

synaptic vesicles = conditions: cited from earlier work

O=P(O)(O)O [Pi, inorganic phosphate]
inhibition of 3H-glutamate uptake by membranes expressing BNPI (BNPI (VGLUT1); 10 mM): did not inhibit; also recorded: has little effect | inhibition of 3H-L-glutamate uptake by DNPI (DNPI/VGLUT2; Pi, data not shown): does not

NCCCC(=O)O [GABA, γ-aminobutyric acid]
inhibition of DNPI-mediated 3H-L-glutamate uptake (DNPI/VGLUT2; 10 mM): not

NC(=O)CC[C@H](N)C(=O)O [L-glutamine]
inhibition of 3H-glutamate uptake by membranes expressing BNPI (BNPI (VGLUT1); 10 mM): had no effect and not

N[C@H](CC(=O)O)C(=O)O [D-aspartate]
inhibition of DNPI-mediated 3H-L-glutamate uptake (DNPI/VGLUT2; 10 mM): not

Cc1cc(-c2ccc(/N=N/c3ccc4c(S(=O)(=O)O)cc(S(=O)(=O)O)c(N)c4c3O)c(C)c2)ccc1/N=N/c1ccc2c(S(=O)(=O)O)cc(S(=O)(=O)O)c(N)c2c1O [Evans blue]
inhibition of 3H-glutamate uptake by membranes expressing BNPI (BNPI (VGLUT1); Evans blue 5 μM (low micromolar)): inhibited the transport; also recorded: inhibits BNPI activity dramatically | inhibition of DNPI-mediated 3H-L-glutamate uptake (DNPI/VGLUT2; Evans Blue 4.5 μM): inhibit uptake; also recorded: significantly inhibit | effect on background glutamate uptake by untransfected cell membranes [1]: had little effect | inhibition of glutamate transport into synaptic vesicles (synaptic vesicles; low micromolar concentrations): inhibited the transport

O=S(=O)(O)c1cc(N=C=S)ccc1C=Cc1ccc(N=C=S)cc1S(=O)(=O)O [DIDS, 4,4′-diisothiocyanatostilbene-2,2′-disulfonic acid]
inhibition of 3H-glutamate uptake by membranes expressing BNPI (BNPI (VGLUT1); 1 μM DIDS): blocks transport only partly | inhibition at 1 µM (BNPI (VGLUT1); 1 μM DIDS, read-out: inhibition of 3H-glutamate transport mediated by BNPI): ~60% | IC50 (synaptic vesicles; read-out: median inhibitory concentration, glutamate transport by synaptic vesicles): ~700 nM

CO[C@@H]1C[C@@H](C[C@H]2CC[C@H](C)[C@H]([C@@H](C)C(=O)O)O2)O[C@]2(O[C@](C)([C@H]3CC[C@@](C)([C@@H]4O[C@@H]([C@H]5O[C@@](O)(CO)[C@H](C)C[C@@H]5C)C[C@@H]4C)O3)C[C@H]2C)[C@@H]1C [nigericin]
effect on 3H-glutamate uptake by BNPI membranes (BNPI (VGLUT1); nigericin 5 μM): increases the uptake | effect on 3H-glutamate uptake by DNPI membranes (DNPI/VGLUT2; 5 μM nigericin): did not significantly reduce transport

N[C@H](CCC(=O)O)C(=O)O [D-Glutamate]
inhibition of 3H-glutamate uptake by membranes expressing BNPI (BNPI (VGLUT1); 10 mM): partially inhibits | inhibition of DNPI-mediated 3H-L-glutamate uptake (DNPI/VGLUT2; 10 mM): significantly inhibit | inhibition of DNPI-mediated 3H-L-glutamate uptake (DNPI/VGLUT2; 10 mM, listed as D-glutamate): inhibit uptake

NCC(=O)O [glycine]
inhibition of DNPI-mediated 3H-L-glutamate uptake (DNPI/VGLUT2; 10 mM): not

CC(C)[C@@H]1NC(=O)[C@H](C)OC(=O)[C@@H](C(C)C)NC(=O)[C@@H](C(C)C)OC(=O)[C@H](C(C)C)NC(=O)[C@H](C)OC(=O)[C@@H](C(C)C)NC(=O)[C@@H](C(C)C)OC(=O)[C@H](C(C)C)NC(=O)[C@H](C)OC(=O)[C@@H](C(C)C)NC(=O)[C@@H](C(C)C)OC1=O [valinomycin]
effect on 3H-glutamate uptake by BNPI membranes (BNPI (VGLUT1); valinomycin 20 μM): substantially reduces glutamate uptake | effect on 3H-glutamate uptake by DNPI membranes (DNPI/VGLUT2; 20 μM valinomycin): inhibits
